Results from patent publication US20190038588A1, “NOVEL CLASS OF COMPOUNDS FOR THE TREATMENT OF CARDIOVASCULAR DISEASE” (STICHTING KATHOLIEKE UNIVERSITEIT, priority 2016, published 2019).
Marks after values point to notes of the source that are not given here.

Assays:
[1] = target: T1, mitochondrial complex III (Mus musculus, UniProt P00158); assay: Complex III enzyme activity in mitochondrial fractions of C2C12 cells (cytochrome c reduction at 550 nm); format: biochemical; conditions: compound at 100 μM; background by antimycin A (2.5 μM); n = 3 independent experiments
T1 construct: the supernatant containing the mitochondria was pelleted at 14,000 g; endogenous in cells; host or cells: C2C12 cells, mitochondrial fraction
Description: C2C12 pellets of 20·10^6 cells were snap frozen in liquid nitrogen and kept at −80° C. until use. For preparation of the mitochondrial fractions, tissues and cells were homogenized, resuspended in 10 mM Tris-HCl (pH 7.6), and snap frozen in aliquots as follows: cells were resuspended in 10 mM Tris-HCl and pottered, and sucrose was added (215 mM). The lysate was cleared of unbroken cells by centrifugation (10 minutes 600 g) after which the supernatant containing the mitochondria was pelleted at 14,000 g for 10 minutes, resuspended in 10 mM Tris-HCl (pH 7.6), and snap frozen in aliquots. Complex III enzyme activity was measured spectrophotometrically in duplicate as described before by determination of the cytochrome c reduction at 550 nm (Janssen et al., 2007; Mourmans et al., 1997; Rodenburg, 2011). For these measurements the following substrates were used: decylubiquinol (300 μM) and cytochrome c (50 μM). Background substraction was based on decylubiquinol auto-oxidation rates for FIG. 2, and on antimycin A (2.5 μM) for table 4. The enzyme activity was determined using the linear domain of the curve. These experiments were generally performed in small reaction volumes to increase throughput. Experiments in larger reaction volumes can improve reliability of obtained values, and are planned.

[2] = target: T2, catalytic domain of the human HMG-CoA reductase (Homo sapiens, UniProt P04035); assay: HMG-CoA reductase activity and inhibition assay (Sigma CS-1090 kit, NADPH oxidation at 340 nm); format: biochemical; conditions: for HMGR activity (% of control) Mean (SEM): compound at 300 nM, n = 3 independent experiments
T2 construct: containing the catalytic domain of the human HMG-CoA reductase; purchased Sigma-Aldrich CS-1090
T2 sequence (P04035 426-888 limits assumed): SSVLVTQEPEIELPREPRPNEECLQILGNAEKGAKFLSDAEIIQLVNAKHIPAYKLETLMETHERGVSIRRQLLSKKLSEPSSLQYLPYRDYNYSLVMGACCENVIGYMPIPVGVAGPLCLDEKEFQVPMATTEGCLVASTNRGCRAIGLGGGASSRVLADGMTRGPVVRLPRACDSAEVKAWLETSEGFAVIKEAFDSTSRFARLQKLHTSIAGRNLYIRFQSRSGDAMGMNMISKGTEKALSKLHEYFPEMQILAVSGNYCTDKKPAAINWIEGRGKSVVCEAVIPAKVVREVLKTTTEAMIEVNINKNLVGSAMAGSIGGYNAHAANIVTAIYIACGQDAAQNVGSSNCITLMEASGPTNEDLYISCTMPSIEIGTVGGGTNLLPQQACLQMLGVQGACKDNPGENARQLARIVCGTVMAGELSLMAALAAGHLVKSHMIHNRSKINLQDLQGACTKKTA
Description: The human HMG-CoA reductase activity and inhibition assays were performed using the HMG-CoA reductase Assay Kit from Sigma-Aldrich (Sigma CS-1090), containing the catalytic domain of the human HMG-CoA reductase. Enzyme activity was determined spectrophotometrically, measuring the oxidation of NADPH at 340 nm. The reaction mixture contained: 0.13 mM HMG-CoA, HMG-CoA reductase, and 50 mM Tris-HCl, (pH 7.5). After 15 min incubation at 37° C., the reaction was started with the addition of 0.13 mM NADPH, and monitored for 30 min. The enzyme activity was determined using the linear domain of the curve. These experiments were generally performed in small reaction volumes to increase throughput. Experiments in larger reaction volumes can improve reliability of obtained values, and are planned.

HMG-CoA reductase = target: T3, HMG-CoA reductase (Homo sapiens, UniProt P04035); conditions: Kajinami K, 2003; Istvan ES, 2001; cited from earlier work
T3 sequence (P04035 1-888): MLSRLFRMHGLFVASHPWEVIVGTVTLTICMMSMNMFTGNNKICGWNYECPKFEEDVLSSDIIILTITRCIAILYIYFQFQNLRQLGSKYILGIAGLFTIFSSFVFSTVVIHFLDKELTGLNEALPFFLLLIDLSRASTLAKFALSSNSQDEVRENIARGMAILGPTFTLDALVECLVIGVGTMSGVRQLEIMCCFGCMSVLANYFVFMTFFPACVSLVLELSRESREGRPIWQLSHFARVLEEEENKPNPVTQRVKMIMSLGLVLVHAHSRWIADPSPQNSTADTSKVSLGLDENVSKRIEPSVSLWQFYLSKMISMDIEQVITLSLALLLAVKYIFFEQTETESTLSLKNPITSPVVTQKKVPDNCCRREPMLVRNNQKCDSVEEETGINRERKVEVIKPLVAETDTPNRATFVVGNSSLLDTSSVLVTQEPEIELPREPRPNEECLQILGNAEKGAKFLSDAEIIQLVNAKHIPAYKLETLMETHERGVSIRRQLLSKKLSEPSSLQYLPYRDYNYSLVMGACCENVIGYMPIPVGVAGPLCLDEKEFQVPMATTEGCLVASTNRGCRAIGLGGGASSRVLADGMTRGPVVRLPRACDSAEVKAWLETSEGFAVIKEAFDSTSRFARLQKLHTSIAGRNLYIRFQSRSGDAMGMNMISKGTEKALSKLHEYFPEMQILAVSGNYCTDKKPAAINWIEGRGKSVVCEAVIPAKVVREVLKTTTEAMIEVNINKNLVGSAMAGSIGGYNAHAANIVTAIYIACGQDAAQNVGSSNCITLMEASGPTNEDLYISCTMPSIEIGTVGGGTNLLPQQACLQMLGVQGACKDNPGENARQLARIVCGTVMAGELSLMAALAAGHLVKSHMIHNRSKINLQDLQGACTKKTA

Compound | complex III activity (% of control) Mean (SEM) [1] | HMGR activity (% of control) Mean (SEM) [2] | IC50 ([2]; dose-response curve of FIG. 2C, 95%-CI printed in the row below) [µM] | IC50 (HMG-CoA reductase) [µM]
CC(C)c1nc(N(C)S(C)(=O)=O)nc(-c2ccc(F)cc2)c1/C=C/[C@@H](O)C[C@@H](O)CC(=O)N(C)C [rosuvastatin dimethylamide, (3R,5S,E)-7-(4-(4-fluorophenyl)-6-isopropyl-2-(N-methylmethylsulfonamido)-pyrimidin-5-yl)-3,5-dihydroxy-N,N-dimethylhept-6-enamide] | 88.90 (7.89) % of control | 91.35 (15.32) % of control |  | 
CC[C@H](C)C(=O)O[C@H]1C[C@@H](C)C=C2C=C[C@H](C)[C@H](CC[C@@H](O)C[C@@H](O)CC(N)=O)[C@H]21 [lovastatin amide, (1S,3R,7S,8S,8aR)-8-((3R,5R)-7-amino-3,5-dihydroxy-7-oxoheptyl)-3,7-dimethyl-1,2,3,7,8,8a-hexahydronaphthalen-1-yl (S)-2-methylbutanoate] | 104.10 (12.47) % of control | 102.30 (10.00) % of control |  | 
O=C(O)C[C@H](O)C[C@H](O)/C=C/c1c(C2CC2)nc2ccccc2c1-c1ccc(F)cc1 [pitavastatine] |  |  |  | 0.007
CC(C)c1nc(N(C)S(C)(=O)=O)nc(-c2ccc(F)cc2)c1/C=C/[C@@H](O)C[C@@H](O)c1nc(=O)o[nH]1 [rosuvastatin nor-oxo-oxadiazole, N-(5-((3S,5R,E)-3,5-dihydroxy-5-(5-oxo-2,5-dihydro-1,2,4-oxadiazol-3-yl)pent-1-en-1-yl)-4-(4-fluorophenyl)-6-isopropylpyrimidin-2-yl)-N-methylmethane-sulfonamide] | 143.50 (15.67) % of control | 100.30 (7.82)^a % of control |  | 
CC(C)c1c(C(=O)Nc2ccccc2)c(-c2ccccc2)c(-c2ccc(F)cc2)n1CC[C@@H](O)C[C@@H](O)CC(N)=O [atorvastatin amide, 1-((3R,5R)-7-amino-3,5-dihydroxy-7-oxoheptyl)-5-(4-fluorophenyl)-2-isopropyl-N,4-diphenyl-1H-pyrrole-3-carboxamide] | 54.34 (7.70) % of control | 97.37 (3.89) % of control |  | 

Further lines, with some results ahead:

complex III activity (% of control) Mean (SEM) [1] | HMGR activity (% of control) Mean (SEM) [2] | IC50 ([2]; dose-response curve of FIG. 2C, 95%-CI printed in the row below) [µM] | Compound | IC50 (HMG-CoA reductase) [µM]
134.50 (17.29) % of control | 86.12 (5.73) % of control |  | CC(C)c1nc(N(C)S(C)(=O)=O)nc(-c2ccc(F)cc2)c1/C=C/[C@@H](O)C[C@@H](O)c1nnn[nH]1 [rosuvastatin nor-tetrazole, N-(5-((3S,5R,E)-3,5-dihydroxy-5-(1H-tetrazol-5-yl)pent-1-en-1-yl)-4-(4-fluorophenyl)-6-isopropylpyrimidin-2-yl)-N-methylmethanesulfonamide] | 
68.59 (5.73) % of control | 38.83 (5.19) % of control | 0.039 | CCC(C)(C)C(=O)O[C@H]1C[C@@H](C)C=C2C=C[C@H](C)[C@H](CC[C@@H](O)C[C@@H](O)CC(=O)NO)[C@H]21 [simvastatin hydroxamic acid, (1S,3R,7S,8S,8aR)-8-((3R,5R)-3,5-dihydroxy-7-(hydroxyamino)-7-oxoheptyl)-3,7-dimethyl-1,2,3,7,8,8a-hexahydronaphthalen-1-yl 2,2-dimethylbutanoate] | 
85.85 (10.62) % of control | 88.17 (4.21) % of control |  | CC(C)c1nc(N(C)S(C)(=O)=O)nc(-c2ccc(F)cc2)c1/C=C/[C@@H](O)C[C@@H](O)Cc1nc(=O)o[nH]1 [rosuvastatin oxo-oxadiazole, N-(5-((3S,5S,E)-3,5-dihydroxy-6-(5-oxo-2,5-dihydro-1,2,4-oxadiazol-3-yl)hex-1-en-1-yl)-4-(4-fluorophenyl)-6-isopropylpyrimidin-2-yl)-N-methylmethane Sulfonamide] | 
85.24 (4.09) % of control | 81.28 (4.70) % of control |  | CC(C)c1nc(N(C)S(C)(=O)=O)nc(-c2ccc(F)cc2)c1/C=C/[C@@H](O)C[C@@H](O)Cc1nnn[nH]1 [rosuvastatin tetrazole, N-(5-((3S,5S,E)-3,5-dihydroxy-6-(1H-tetrazol-5-yl)hex-1-en-1-yl)-4-(4-fluorophenyl)-6-isopropylpyrimidin-2-yl)-N-methylmethanesulfonamide] | 
